Experimental data reported in patent publication US9540619B2, “MELK regulation for the treatment of breast cancer” (NOVARTIS AG, priority 2013, dated 2017).
“Also recorded” adds a separate entry of the source. Where a SMILES comes first, the peptide text is derived from it. The star is where a group is joined. Cbz = O=C(OCc1ccccc1)*; CH2F = FC*

Columns and labels:
Type in all cases: cell-based, human
[1] = tested on: FoxM1; assay: MELK abundance after FoxM1 inhibition (immunoblotting)
Procedure: Cells were lysed with RIPA buffer (25 mM Tris, pH 7.4, 150 mM NaCl, 1% Nonidet P-40, 0.5% sodium deoxycholate, and 0.1% sodium dodecyl sulfate) supplemented with protease inhibitors cocktail (Roche) and phosphatase inhibitors cocktail (Thermo Scientific). Cleared lysates were analyzed for protein concentration using BCA kit (Thermo Scientific). Equal amount of protein (10-20 μg) was resolved on 8% or 10% SDS-PAGE, and was subsequently transferred onto a nitrocellulose or polyvinylidene difluoride membrane (Amersham). The membrane was blocked with 5% non-fat milk and was then incubated with primary antibodies overnight at 4° C. After washing, the membrane was incubated with fluorophore-conjugated secondary antibodies for 1 h at room temperature. The membrane was then washed and scanned with an Odyssey Infrared scanner (Li-Cor Biosciences). Primary antibodies used in this study include anti MELK (Epitomics, #2916), anti-α-tubulin (Abcam), anti-cyclin B1 (Millipore), anti-Vinculin (Sigma), anti-FoxM1 (Santa Cruz), anti-β-tubulin, anti-phopho-Akt (S473), anti-phospho Akt (T308), anti-total Akt, anti-Flag, anti-cleaved PARP (Asp214), anti-cleaved Caspase 3, anti-AURKA, anti-AURKB, anti-p27 (all from Cell Signaling Technology). Secondary antibodies used were IRDye700-conjugated anti-rabbit IgG and IRDye800-conjugated anti-mouse IgG (Rockland).

[2] = tested on: FoxM1; assay: MELK transcription after FoxM1 inhibition (qRT-PCR); conditions: cells treated for 16 h; quantitative PCR
Procedure: Total RNA was extracted from cultured cells with RNeasy Mini kit (Qiagen), with the use of QIAshredder spin column for homogenization and an on-column DNase digestion. Two micrograms of the total RNA was reversely transcribed using a High Capacity RNA to-cDNA Kit (Applied Biosystems). cDNAs were analyzed quantitatively using Power SYBR Green PCR Master Mix (Applied Biosystems) on an ABI7300 Real-time PCR system. Cycling conditions were 95° C. for 15 min, 40 cycles of 15 s at 94° C., 30 s at 55° C. and 30 s at 72° C. Ct values were generated using the default analysis settings. ΔCT was defined as Ctgene of interest-Ctβactin. ΔΔCT was defined as ΔCttreated sample-Ctcontrol sample. Relative quantification (RQ) was calculated as 2^−ΔΔCT. Statistical analysis was performed by Student's test.

[3] = tested on: caspases; assay: MELK knockdown-induced cell death with pan-caspase inhibitor; conditions: MDA-MB-468 cells with shMELK, doxycycline 4 days, last two days with 40 μM zVad-fmk
[4] = tested on: BBC cells including BT549, MDA-MB-468, MDA-MB-231, and MDA-MB-436; assay: Cell proliferation assay (crystal violet) upon doxycycline-induced shRNA; conditions: knockdown induced with doxycycline 100 ng/ml; crystal violet staining six days after initial treatment
Procedure: (§1) Typically, breast cancer cells were seeded in 12-well plates (1-2×10^4) in 1 ml medium. On the next day, wells were added with 110 μl medium without or with 1 μg/ml doxycycline (to reach a final concentration of 100 ng/ml), which was repeated every two days. Six days after the initial treatment, cells were fixed with formaldehyde, and stained with crystal violet (0.05%, weight/volume), a chromatin-binding cytochemical stain. The plates were washed extensively, and imaged with a flatbed scanner. For quantification of the staining, 1 ml 10% acetic acid was added to each well to extract the dye. The absorbance was measured at 590 nm with 750 nm as a reference.

[5] = tested on: luminal cell lines, MCF7 and T47D; assay: as above; conditions: knockdown induced with doxycycline 100 ng/ml
Procedure: as §1

For `C=C(NC(=O)C(=C)NC(=O)c1csc(C2=N[C@@H]3c4csc(n4)[C@H]4NC(=O)c5csc(n5)[C@H]([C@](C)(O)[C@@H](C)O)NC(=O)[C@H]5CSC(=N5)/C(=C/C)NC(=O)[C@H]([C@@H](C)O)NC(=O)c5csc(n5)[C@]3(CC2)NC(=O)[C@H](C)NC(=O)C(=C)NC(=O)[C@H](C)NC(=O)[C@H]([C@@H](C)CC)N[C@@H]2C=Cc3c([C@H](C)O)cc(nc3[C@H]2O)C(=O)O[C@@H]4C)n1)C(N)=O` [thiostrepton], the “abundance/expression of MELK protein” value ([1]; MDA-MB-231 cells, 10 μM thiostrepton vs vehicle (0.1% DMSO)) was “reduced the abundance of MELK; also recorded: downregulates the expression of MELK” and the “transcription of MELK” value [2] was “decreases the transcription of MELK”.
`COC(=O)C[C@H](NC(=O)[C@H](C)NC(=O)[C@@H](NC(=O)OCc1ccccc1)C(C)C)C(=O)CF` [zVad, zVad-fmk] (Cbz-Val-Ala-Asp(OMe)-CH2F) was tested, and the “MELK knockdown-induced cell death” value [3] was “significantly reduced MELK knockdown-induced cell death”.
In the case of “GACTAAAGCTTCACTATAATG (expressed or natural sequence) [MELK sh-1805, ID; NO: 2]”, the “growth of BBC cells upon induction of the shRNA” value [4] is reported as “strongly impaired the growth” and the “growth of luminal cell lines upon induction of the shRNA” value [5] is reported as “protected from the induction of MELK silencing”.
With “GAGAGCTGTTTGACTATATAA (expressed or natural sequence) [MELK sh-413, ID; NO: 1]” the “growth of BBC cells upon induction of the shRNA” value [4] was “strongly impaired the growth” and the “growth of luminal cell lines upon induction of the shRNA” value [5] was “protected from the induction of MELK silencing”.
For “GCCTGAAAGAAACTCCAATTA (expressed or natural sequence; the letters are possibly those of the target site) [shMELK2, ID; NO: 4]”, the “growth of BBC cells upon induction of the shRNA” value [4] was “strongly impaired the growth” and the “growth of luminal cell lines upon induction of the shRNA” value [5] was “protected from the induction of MELK silencing”.
With “GGTGTGATACAGCCTACATAA (expressed or natural sequence; the letters are possibly those of the target site) [shMELK1, ID; NO: 3]” the “growth of BBC cells upon induction of the shRNA” value [4] was “strongly impaired the growth” and the “growth of luminal cell lines upon induction of the shRNA” value [5] was “protected from the induction of MELK silencing”.
For “ggaccacuuucccuacuuu [siRNA (SEQ ID NO: 31)]”, the “abundance/expression of MELK protein” value ([1]; siRNA transfection, lysates three days after transfection) was “reduced the abundance of MELK” and the “abundance/expression of MELK protein” value ([1]; siRNA transfection, lysates three days after transfection, listed as siRNA targeting FoxM1) was “suppresses MELK expression”.
